Patent publication US10632064B2, “Topical regional neuro affective therapy with cannabinoid combination products” (Afgin Pharma, LLC, priority 2015, dated 2020)

Key:
[1] = test system: acute paranoid schizophrenia; details: after 2 weeks; cited from earlier work
[2] = test system: human patient having a remote head injury, s/p 4 craniotomies and intractable seizures; test: Example 7: topical cannabidiol 40 mg at the BONATH, intractable seizures, EEG; format: in vivo; details: 25 mg milnacipran topical nuchal after cannabidiol 40 mg
Procedure: The efficacy of a topical cannabidiol formulation was studied in a human patient having a remote head injury, s/p 4 craniotomies and intractable seizures. The patient was treated with cannabidiol 40 mg applied to the BONATH in a topical formulation. There was attenuation of associated focal EEG abnormalities.

Structure (SMILES) | psychotic symptoms [1] | EEG after further topical nuchal treatment [2]
CCN1CCCC1CNC(=O)c1cc(S(=O)(=O)CC)c(N)cc1OC (centres unmarked) [amisulpride] | significant decrease in psychotic symptoms | –
CCN(CC)C(=O)C1(c2ccccc2)CC1CN (centres unmarked) [milnacipran] | – | further attenuated
